Assay results: ChEMBL document CHEMBL1221220, “Transport and signaling via the amino acid binding site of the yeast Gap1 amino acid transceptor” (Nat Chem Biol, 2009)
Numbering of substitutions follows the chain as printed. Active and inactive are the calls of the source. The calls are words filed in the database; no cut-off is given here.

Key:
[1] = tested on: T1, General amino-acid permease GAP1 (Saccharomyces cerevisiae), P19145 [L387C]; assay: Activation of yeast Gap1 L387C mutant-mediated amino acid uptake at 10 mM
T1 sequence (whole entry): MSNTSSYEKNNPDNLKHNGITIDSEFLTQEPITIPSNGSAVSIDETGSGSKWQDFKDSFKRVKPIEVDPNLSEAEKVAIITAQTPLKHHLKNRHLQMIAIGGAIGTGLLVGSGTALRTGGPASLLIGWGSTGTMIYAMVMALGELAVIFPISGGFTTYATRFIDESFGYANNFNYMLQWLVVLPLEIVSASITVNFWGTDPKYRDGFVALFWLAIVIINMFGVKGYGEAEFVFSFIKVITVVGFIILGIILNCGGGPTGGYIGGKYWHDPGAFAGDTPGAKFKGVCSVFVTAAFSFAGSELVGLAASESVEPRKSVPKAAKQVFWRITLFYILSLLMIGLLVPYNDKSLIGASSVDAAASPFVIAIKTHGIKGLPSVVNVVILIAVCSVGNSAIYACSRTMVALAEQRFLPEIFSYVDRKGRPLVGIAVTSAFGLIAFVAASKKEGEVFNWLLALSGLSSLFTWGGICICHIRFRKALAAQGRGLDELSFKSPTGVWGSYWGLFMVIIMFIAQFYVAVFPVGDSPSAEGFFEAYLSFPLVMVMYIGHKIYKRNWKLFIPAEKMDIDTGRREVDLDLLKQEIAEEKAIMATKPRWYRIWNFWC

[2] = tested on: T2, General amino-acid permease GAP1 (Saccharomyces cerevisiae), P19145 [G390C]; assay: Induction of yeast Gap1 G390C mutant-mediated trehalose activation at 10 mM
T2 sequence (whole entry): T1 sequence (whole entry) with C387L, G390C

Saccharomyces cerevisiae = assay: Induction of yeast Gap1 L404 mutant-mediated trehalose activation at 10 mM
[3] = tested on: T3, General amino-acid permease GAP1 (Saccharomyces cerevisiae), P19145 [L383C]; assay: Induction of yeast Gap1 L383C mutant-mediated amino acid uptake at 2 mM in presence of 10 mM MTSEA treated before compound addition
T3 sequence (whole entry): T1 sequence (whole entry) with L383C, C387L

[4] = tested on: T2, General amino-acid permease GAP1 (Saccharomyces cerevisiae), P19145 [G390C]; assay: Induction of yeast Gap1 G390C mutant-mediated amino acid uptake at 2 mM in presence of 10 mM MTSEA treated before compound addition
[5] = tested on: T4, General amino-acid permease GAP1 (Saccharomyces cerevisiae), P19145 [N391C]; assay: Induction of yeast Gap1 N391C mutant-mediated amino acid uptake at 2 mM in presence of 10 mM MTSEA treated before compound addition
T4 sequence (whole entry): T1 sequence (whole entry) with C387L, N391C

**Q.** For `NC(=O)NCCC[C@H](N)C(=O)O`, which Activity [1] is on record?
**A.** inactive

**Q.** And the Activity [2]?
**A.** inactive

**Q.** And the Activity (Saccharomyces cerevisiae)?
**A.** inactive

**Q.** What about the Activity [3] of the same molecule?
**A.** Active

**Q.** What about the Activity [4] of the same molecule?
**A.** Active

**Q.** And the Activity [5]?
**A.** Active
